Laboratory results from article PMC3723327 (Journal of biomolecular screening, 2012).

Legend:
MEKK2 [1] = target: T1, MEKK2 (Homo sapiens, UniProt Q9Y2U5); experiment: MEKK2 intrinsic ATPase activity assay; assay type: biochemical; conditions: for inhibition at 1 µM: read-out: Inhibition in MEKK2 intrinsic ATPase assay screen (hit criterion)
T1 sequence (Q9Y2U5 1-619): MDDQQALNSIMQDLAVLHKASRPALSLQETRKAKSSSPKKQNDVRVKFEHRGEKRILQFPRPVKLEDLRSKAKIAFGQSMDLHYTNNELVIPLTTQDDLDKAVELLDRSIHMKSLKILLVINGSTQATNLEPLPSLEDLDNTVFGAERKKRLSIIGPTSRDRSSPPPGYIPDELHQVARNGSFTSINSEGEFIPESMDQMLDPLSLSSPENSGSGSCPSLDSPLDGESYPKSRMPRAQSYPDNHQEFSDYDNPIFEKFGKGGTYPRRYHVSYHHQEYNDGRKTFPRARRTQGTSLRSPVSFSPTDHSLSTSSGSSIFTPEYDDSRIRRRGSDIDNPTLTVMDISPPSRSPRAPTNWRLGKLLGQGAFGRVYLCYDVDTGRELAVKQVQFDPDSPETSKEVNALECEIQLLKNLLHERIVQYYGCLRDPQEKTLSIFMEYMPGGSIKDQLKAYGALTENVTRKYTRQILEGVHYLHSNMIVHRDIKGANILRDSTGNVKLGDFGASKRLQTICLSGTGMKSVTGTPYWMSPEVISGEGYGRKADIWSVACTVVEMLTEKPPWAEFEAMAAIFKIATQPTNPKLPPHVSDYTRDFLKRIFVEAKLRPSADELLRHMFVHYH

MEKK2 [2] = target: T1, MEKK2; experiment: MEKK2 TR-FRET binding assay; conditions: 5 nM MEKK2, 25 nM kinase tracer 236
MEKK2 [3] = target: T1, MEKK2; experiment: MEKK2 transphosphorylation activity assay; assay type: biochemical; conditions: 2 nM MEKK2, 200 nM MKK6, 3 μM ATP
MEKK2 [4] = conditions: read-out: Published MEKK2 Binding Assay IC50; TR-FRET binding assay; ref Invitrogen Lanthascreen Eu Kinase Binding Assay for MEKK2 Validation Packet; cited from earlier work
MEKK2 [5] = target: T2, MEKK2 (Homo sapiens, UniProt Q9Y2U5); experiment: MEKK2 intrinsic ATPase activity assay; assay type: biochemical; conditions: MEKK2 from vendor 3 (catalytic domain only)
T2 sequence (Q9Y2U5 357-619): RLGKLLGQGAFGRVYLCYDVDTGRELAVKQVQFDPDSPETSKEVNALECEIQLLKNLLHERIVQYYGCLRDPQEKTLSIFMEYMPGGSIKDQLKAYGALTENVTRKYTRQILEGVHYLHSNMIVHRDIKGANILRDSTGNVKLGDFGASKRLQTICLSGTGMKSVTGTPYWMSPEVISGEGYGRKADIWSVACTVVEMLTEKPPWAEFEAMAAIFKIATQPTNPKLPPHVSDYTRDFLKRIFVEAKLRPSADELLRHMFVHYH

MEKK2 [6] = experiment: MEKK2 intrinsic ATPase activity assay; assay type: biochemical, human; conditions: high compound concentrations
[7] = 10 nM MEKK2 (vendor 1), 30 μM ATP

| SMILES | Binding Assay Hill Slope ± SD (MEKK2 [2]) | MEKK2 Intrinsic ATPase Assay Hill Slope ± SD (MEKK2 [1]; [7]) | inhibition at 1 µM (MEKK2 [1]) | Transphosphorylation Assay Hill Slope ± SD (MEKK2 [3]) | IC50 (MEKK2 [4]) | further results |
| --- | --- | --- | --- | --- | --- | --- |
| CN[C@@H]1C[C@H]2O[C@@](C)([C@@H]1OC)n1c3ccccc3c3c4c(c5c6ccccc6n2c5c31)C(=O)NC4 [Staurosporine] |  |  |  |  |  | MEKK2 Intrinsic ATPase Assay Hill Slope ± SD (MEKK2 [1]; 1 nM (instead of 10 nM) MEKK2 enzyme): 0.93 ± 0.13 |
| Cc1ccc(Nc2nccc(N(C)c3ccc4c(C)n(C)nc4c3)n2)cc1S(N)(=O)=O [Pazopanib] | 1.05 ± 0.03 | 1.06 ± 0.07 | ≥ 50% |  |  |  |
| CCN(CC)CCNC(=O)c1c(C)[nH]c(/C=C2\C(=O)Nc3ccc(F)cc32)c1C [Sunitinib] | 0.89 ± 0.04 | 1.06 ± 0.16 |  | 0.96 ± 0.15 | […] | Intrinsic ATPase assay Hill slope ± SD (MEKK2 [5]): 1.01 ± 0.05; Difference in IC50 values between ATPase and binding assay (MEKK2 [1]; ATPase assay vs TR-FRET binding assay): 2.4 fold; Intrinsic ATPase assay Hill slope ± SD (MEKK2 [1]; MEKK2 from vendor 2): 1.01 ± 0.02; Inhibition of ATPase activity at high compound concentrations (MEKK2 [6]): complete inhibition |
| COc1cc(Nc2c(C#N)cnc3cc(OCCCN4CCN(C)CC4)c(OC)cc23)c(Cl)cc1Cl [Bosutinib] | 0.93 ± 0.05 | 1.07 ± 0.09 | ≥ 50% | 1.03 ± 0.21 |  |  |
| Cc1nc(Nc2ncc(C(=O)Nc3c(C)cccc3Cl)s2)cc(N2CCN(CCO)CC2)n1 [Dasatinib] |  | 1.10 ± 0.20 |  |  | […] |  |
| Cc1cc(Nc2cc(N3CCN(C)CC3)nc(Sc3ccc(NC(=O)C4CC4)cc3)n2)[nH]n1 [VX-680] |  | 0.97 ± 0.13 |  |  | 2300 nM |  |
